Measured values as given in publication PMC10786692 (The Journal of Clinical Investigation, 2024).

How the values were obtained:
[1] = preclinical monotherapy; cited from earlier work
γH2AX = test: Paired tumor biopsy γH2AX IHC; type: in vivo, human; settings: four paired biopsies, after 2-week dosing
Description: (§1) PD sampling took place at baseline (within 7 days prior to dosing) and between days 15 and 22 of dosing (day 14 for intermittent dosing cohorts). PD samples included PBMCs and tumor biopsies. PBMCs were analyzed by immunofluorescence for γ^(S139)H2AX, p-^(S345)Chk1, and total Chk1, as described in Supplemental Methods. Paired tumor biopsies were formalin fixed and analyzed for nuclear p-^(S635)Rad50 and γH2AX by IHC. […]
(§2) signatures for heatmap construction were used from MSigDB (49) and cell-type-related transcripts from NanoString annotations and Bindea et al (50). Cell-type deconvolution was performed using CIBERSORTx (51).
(§3) Supplementary Pharmacodynamic methods
(§4) Formalin fixed paraffin-embedded tumor samples were used. […] H-score was calculated using HALO image analysis (Indica Labs). […] Nuclear ATM (Abcam 32420) IHC staining was carried out on the Ventana autostainer, using DAB detection and assessed by H-score, but samples were only deemed acceptable if lymphocyte staining (internal control) was at least 2+ (moderate) intensity. Cyclin E1 (Invitrogen HE12) staining was carried out on the Ventana autostainer, using DAB detection and the H-score was quantified using HALO image analysis (Indica Labs). Ki67 (Mib-1, Dako M7240) was scored by percent nuclear positivity using a global unweighted method, scoring 4 areas of 100 cells. […]

advanced solid tumors = test: Antitumor response by RECIST 1.1 and duration on study; type: in vivo, human; settings: for Patients with PR: 40 mg BD or more
[2] = Dose-limiting toxicity, MTD and RP2D determination; type: in vivo; settings: for Number of DLT: 3 evaluable; for Patients with DLT / number of DLT: 6 evaluable
Description: For part A (dose escalation; Figure 1, A and B), the starting dose of 20 mg was selected based on animal toxicity studies. Dosing was continuous, and escalation used a modified Fibonacci method. Initial dose escalation was planned in single patient cohorts, changing to 3+3 design after the first grade-2 toxicity was seen. […] DLT definitions are in the Supplemental Methods.
For part B, all patients received the RP2D as defined for part A. Part B allowed for different schedules (continuous/intermittent) to be assessed. Initially, a continuous dosing schedule was used for the first 6 patients. […] Pretreatment biopsy was mandatory in part B. DNA-Seq of archival tumor material or review of external tumor sequencing was used to enrich for patients with putative genomic markers of sensitivity to ATRi, based on preclinical data, including oncogene amplification or driver mutation, ATM/G1 pathway defects (alteration in ATM, CHK2, or other components of the pathway causing G1 cell-cycle arrest after DNA damage), SWI/SNF (switch/sucrose nonfermentable, a chromatin-remodeling complex) pathway defect, genomic instability/homologous recombination deficit (HRD), or defect in a gene synthetically lethal with ATRi in published data ([46], [47]) (Figure 1B and Supplemental Table 3). […]
Criteria for Dose Limiting Toxicity
1. Hematological toxicity
1. Grade 3 thrombocytopenia with bleeding
2. Grade 4 thrombocytopenia
3. Grade 4 neutropenia lasting >7 days in the absence of growth factor […]
and/or systemic infection
5. Any other grade ≥4 hematological toxicity
2. Cardiovascular toxicity
1. Clinically significant hypotension defined as an asymptomatic fall in systolic blood pressure more than 20mmHg to below 70mmHg persisting for at least 10 minutes
2. Symptomatic orthostatic fall in systolic blood pressure of more than 20mmHg compared to resting supine blood pressure
3. Prolongation of QTc >0.5 seconds (using an appropriate correction […]
3. Gastrointestinal/hepatic toxicity
1. ALT or AST >5 times ULN; ALP >5 times ULN with elevated gamma- GT
2. ALT or AST >3 times ULN (or ALP >3 times ULN with elevated gamma-GT) with the appearance of symptoms associated with a clinical diagnosis of hepatitis including right upper quadrant pain or tenderness, fever, rash, or eosinophilia (>5%)
3. [ALT or AST >3 times ULN] and [total bilirubin >2 times ULN] or INR >1.5x ULN (unless patient receiving warfarin) (or other evidence of impaired liver synthetic function)
4. Any other grade 3-4 non-hematological toxicity occurring during the time period from the first dose to the end of the first cycle
2. Excluding grade 3 nausea or vomiting if ameliorated by medical management
3. Excluding grade 3 fatigue unless there is an increase by 2 grades from baseline
5. Any dose in cycle 1, or the start of cycle 2, delayed by more than 7 days due to toxicity or patient unable to complete cycle 1 at the planned dose due to toxicity (parts A and B only)
6. Any other toxicity that is greater than baseline, is clinically significant and/or unacceptable, does […]
is considered to be dose-limiting by the investigators.

phospho-(S635)Rad50 = test: Paired tumor biopsy p-Rad50 IHC; type: in vivo, human; settings: four paired biopsies, after 2-week dosing
Description: as §1, §2, §3, §4

Structure (SMILES): C[C@@H]1COCCN1c1cc(C2([S@](C)(=N)=O)CC2)nc(-c2cc[nH]c3nccc2-3)n1 [ceralasertib]
- GI50 [1]: ~1 µM
- Number of γH2AX-positive cells in paired tumor biopsies (γH2AX): increase
- Patients with PR (advanced solid tumors; mutation of interest, 4 of 30): 13%
- Patients with PR (advanced solid tumors; no mutation of interest, 1 of 11): 9%
- Progressive disease, n (%) (advanced solid tumors; 160 mg BD or more, n = 49): 15 (30%)
- Median duration on treatment (advanced solid tumors; 4 ATM-low patients, range 8–29): 13 weeks
- Patients deriving clinical benefit (advanced solid tumors; 11 patients with oncogene-driven tumors): 3
- Best overall response: progressive disease incl. clinical progression, n (%) (advanced solid tumors; 66 evaluable patients): 27 (41%)
- Best overall response: stable disease incl. 1 unconfirmed PR, n (%) (advanced solid tumors; 66 evaluable patients): 34 (52%)
- Best overall response: confirmed partial responses, n (%) (advanced solid tumors; 66 evaluable patients, 20–240 mg BD): 5 (8%)
- Duration (advanced solid tumors; ARID1A E1387X, lobular breast carcinoma): 42 days
- Duration (advanced solid tumors; ARID1A Q1188X, ovarian clear cell): 275 days
- Duration (advanced solid tumors; ARID1A R693*, eccrine adenocarcinoma): 240 days
- Duration (advanced solid tumors; ARID1A S1623L, cervix adenocarcinoma): 203 days
- Duration (advanced solid tumors; ARID2 Y854fs, SCCHN): 697 days
- Tumor shrinkage (advanced solid tumors; ARID2 frameshift-bearing HNSCC): 29%
- Patients experiencing SD (advanced solid tumors; ATM-low patients): 3 of 4
- Best response (advanced solid tumors; CCNE1 amplification, peritoneal carcinoma, 20 mg BD): progressive disease
- Duration on study with SD (advanced solid tumors; CCNE1 amplification, serous endometrial carcinoma): 12 weeks
- Duration of RECIST SD / on study (advanced solid tumors; HNSCC with ARID2 frameshift): 99 weeks
- Duration of RECIST SD (advanced solid tumors; HNSCC with CCND1 amplification): 49 weeks
- Duration on study (advanced solid tumors; HNSCC, MRE11 and CDKN2A mutation): 1,194 days
- Duration on study (advanced solid tumors; HNSCC, RECIST PR, 40 mg BD): 106 days
- Duration of RECIST SD (advanced solid tumors; HNSCC, no sequencing available): 48 weeks
- Duration on study with confirmed PR (advanced solid tumors; MRE11 stop-gain R633X with CDKN2A stop-gain): more than 32 months
- Duration (advanced solid tumors; PBRM S295*, SCCHN): 112 days
- Median duration of response (advanced solid tumors; PR or SD, with a mutation of interest): 185.5 days
- Median duration of response (advanced solid tumors; PR or SD, without a mutation of interest): 105 days
- Duration of response (advanced solid tumors; PR, HNSCC with APC frameshift and TP53 mutation, 40 mg BD): 15 weeks
- Duration of response (advanced solid tumors; PR, HNSCC with CDKN2A and MRE11A frameshift, 160 mg BD, remains on study): 170 weeks
- Duration of response (advanced solid tumors; PR, esophageal squamous cell carcinoma, HR/Fanconi deficiency, 160 mg BD): 47 weeks
- Duration of response (advanced solid tumors; PR, nasopharyngeal carcinoma, NRAS activating mutation, 240 mg BD): 14 weeks
- Duration of response (advanced solid tumors; PR, ovarian clear cell carcinoma, ARID1A mutation, 160 mg BD, remains on study): 251 weeks
- Median duration of response (advanced solid tumors; RECIST PR patients, IQR 14.9–251.0): 46.7 weeks
- Duration of RECIST SD (advanced solid tumors; digital papillary adenocarcinoma with TP53 mutation): 51 weeks
- Duration of SD (advanced solid tumors; eccrine adenocarcinoma, ARID1A R693X, CDKN2A deletion, 240 mg BD): 34 weeks
- Duration on study (advanced solid tumors; esophageal squamous cell carcinoma, RECIST PR, 160 mg BD intermittent): 575 days
- Duration of SD (advanced solid tumors; increased cyclin E1 by IHC, cervical adenocarcinoma): 29 weeks
- Duration of SD (advanced solid tumors; increased cyclin E1 by IHC, serous endometrial carcinoma, germline BRCA1 mutation): 16 weeks
- Duration on study (advanced solid tumors; nasopharyngeal carcinoma, NRAS activation, RECIST PR, 240 mg BD): 341 days
- Duration on study (advanced solid tumors; pancreatic adenocarcinoma, unconfirmed PR, 160 mg BD intermittent): 480 days
- Duration on study with SD (advanced solid tumors; pathogenic ATM mutation R1898fsX with coexisting ARID1A mutation): 39 weeks
- Participants deriving clinical benefit (advanced solid tumors; seven participants with SWI/SNF pathway aberrations): 6
- Duration of response (advanced solid tumors; unconfirmed PR, TP53 mutant pancreatic adenocarcinoma, 160 mg BD): 15 weeks
- Number of DLT ([2]; 20 mg BD): 0
- Number of DLT ([2]; 40 mg BD): 0
- Patients with DLT / number of DLT ([2]; 80 mg BD): 1
- Patients with DLT / number of DLT ([2]; 240 mg BD): 3
- Recommended phase 2 dose (RP2D) ([2]; BD (twice daily), intermittent: 2 weeks on, 2 weeks off, 4-weekly cycle): 160 mg
- Maximum tolerated dose ([2]; BD, continuous dosing, dose escalation): 160 mg
- p-Rad50 in paired tumor biopsies (phospho-(S635)Rad50): upregulation
